In one assay the test system is HCT116 colon cancer cells. Description: KSP Cellular Assay (percent of cells staining positive for Phos-Histone H3 / Phos-MPM2). The class given is cell-based. Particulars: Homo sapiens, HCT-116, 16 h, Table 101; HCT116 cells, 16 hours with drug; read-out: ED50 (nM) Range. Here is the method:
HCT116 colon cancer cells were grown in DMEM:F12 media with 10% heat inactivated FBS at 37 degrees with 5% CO2. Cells were plated at 7,500 cells per well in PDL coated 384-well tissue culture plates. 6 hours later media was removed and new media containing drug was added. Cells were incubated with drug for 16 hours. All further steps were performed at room temperature in the dark. Cells were fixed with 25 ul/well Prefer fixation solution plus 250 nM Hoechst dye and incubated for 30 minutes. The fixation solution was removed and cells were washed with PBS. Cells were then permeabilized with 25 ul/well 0.2% Triton-X in PBS and incubated for 10 minutes. Cells were washed with PBS and then incubated with 25 ul/well PBS containing 3% FBS for 30 minutes. Cells were then stained overnight at 4 degrees with 25 ul/well antibody solution in PBS plus 3% FBS. Antibodies used were Phos-Histone H3 (ser10)-Alexa Flur 488 Conjugate and Phos-MPM2 Texas Red Conjugate. Cells were washed with PBS and then immunofluorescence images captured with HT Pathway microscope. The percent of cells staining positive was calculated and EC50 values for the compounds of the invention that were tested were determined using Excel XLfit.
EC50 Determinations: Dose-response curves were plotted from inhibition data generated each in duplicate, from 8 point serial dilutions of inhibitory compounds. Concentration of compound was plotted against enzyme activity (OD reading). To generate EC50 values, the dose-response curves were then fitted to a standard sigmoidal curve and EC50 values were derived by nonlinear regression analysis.
In the case of `CC(=O)N1N=C(c2cc(F)ccc2F)SC12CCN(C)c1ccccc12` (stereo not drawn) [compound 111], the EC50 was more than 1000 nM.

In the case of `CC(=O)N1N=C(c2cc(F)ccc2F)SC12CC1(CCNCC1)Oc1ccccc12` (stereo not drawn) [compound 125], the EC50 is more than 1000 nM.

Turning to `CC(=O)N1N=C(c2cc(F)ccc2F)SC12CCCc1ncccc12` (stereo not drawn) [compound 123], the EC50 was more than 1000 nM.

For the compound `CC(=O)N1N=C(c2cc(F)ccc2F)SC12COc1ccccc12` (stereo not drawn) [compound 106], the EC50 is not above 500 nM.

With `CC(=O)N1N=C(c2cc(F)ccc2F)SC12CCNc1ccccc12` (stereo not drawn) [compound 110], the EC50 was not above 500 nM.

On to `CC(=O)N1N=C(c2cc(F)ccc2F)SC12CCS(=O)(=O)c1ccccc12` (stereo not drawn) [compound 109], for which the EC50 is more than 1000 nM.

Regarding `CCOC(=O)N1CCC2(SC(c3cc(F)ccc3F)=NN2C(C)=O)c2ccccc21` (stereo not drawn) [compound 113], the EC50 was more than 1000 nM.

Still in this assay, the particulars now being: Homo sapiens, HCT-116, 16 h, Table 401; HCT116 cells, 16 hours with drug; read-out: ED50 (nM) Range.
Consider `CN1CCC(C(=O)N2N=C(c3cc(F)ccc3F)SC23CCCc2ccsc23)CC1` (stereo not drawn) [compound 429], for which the EC50 is more than 1000 nM.

On to `NCCCCC(=O)N1N=C(c2cc(F)ccc2F)SC12CCOc1ccccc12` (stereo not drawn) [compound 487], for which the EC50 was not above 500 nM.

For the compound `O=C(CCCN1CCCC1)N1N=C(c2cc(F)ccc2F)SC12CCOc1ccccc12` (stereo not drawn) [compound 492], the EC50 is not above 500 nM.

In the case of `CNCCCC(=O)N1N=C(c2cc(F)ccc2F)SC12CCOc1ccccc12` (stereo not drawn) [compound 489], the EC50 was not above 500 nM.

For `O=C(C1CC1)N1N=C(c2cc(F)ccc2F)SC12CCOc1ccccc12` (stereo not drawn) [compound 464], the EC50 fell in the range of 500 to 1000 nM.

Regarding `O=C(Cc1ccncc1)N1N=C(c2cc(F)ccc2F)SC12CCc1ccccc12` (stereo not drawn) [compound 449], the EC50 is not above 500 nM.

Take `CC(C)[C@H](O)C(=O)N1N=C(c2cc(F)ccc2F)SC12CCCc1ccccc12` (stereo partly drawn) [compound 402]: the EC50 is more than 1000 nM.

`NCCCC(=O)N1N=C(c2cc(F)ccc2F)SC12CCc1ccccc12` (stereo not drawn) [compound 437]: the EC50 is not above 500 nM.

Regarding `O=C(C1CCCNC1)N1N=C(c2cc(F)ccc2F)SC12CCOc1ccccc12` (stereo not drawn) [compound 407], the EC50 is more than 1000 nM.

On to `N[C@H](C(=O)N1N=C(c2cc(F)ccc2F)SC12CCCc1ccsc12)C1CC1` (stereo partly drawn) [compound 428], for which the EC50 is more than 1000 nM.

On to `O=C(CCC1CCCNC1)N1N=C(c2cc(F)ccc2F)SC12CCOc1ccccc12` (stereo not drawn) [compound 482], for which the EC50 was not above 500 nM.

For the compound `O=C([C@@H]1CCCN1)N1N=C(c2cc(F)ccc2F)SC12CCc1ccccc12` (stereo partly drawn) [compound 423], the EC50 was more than 1000 nM.

On to `O=C([C@@H]1CCCCN1)N1N=C(c2cc(F)ccc2F)SC12CCCc1ccccc12` (stereo partly drawn) [compound 414], for which the EC50 is more than 1000 nM.

`O=C(C1CCCCN1)N1N=C(c2cc(F)ccc2F)SC12CCOc1ccccc12` (stereo not drawn) [compound 404]: the EC50 was more than 1000 nM.

In the case of `CC(N)CCC(=O)N1N=C(c2cc(F)ccc2F)SC12CCOc1ccccc12` (stereo not drawn) [compound 490], the EC50 is not above 500 nM.

Consider `N[C@@H]1CC[C@@H](C(=O)N2N=C(c3cc(F)ccc3F)SC23CCOc2ccccc23)C1` (stereo partly drawn) [compound 478], for which the EC50 is more than 500 nM.

Regarding `NCCCC(=O)N1N=C(c2cc(F)ccc2F)S[C@]12CCOc1ccccc12` [compound 458], the EC50 was not above 500 nM.

On to `O=C(CCCN1CCCCC1)N1N=C(c2cc(F)ccc2F)SC12CCOc1ccccc12` (stereo not drawn) [compound 494], for which the EC50 was not above 500 nM.

Consider `O=C([C@@H]1CCCCN1)N1N=C(c2cc(F)ccc2F)SC12CCSc1ccccc12` (stereo partly drawn) [compound 403], for which the EC50 is more than 1000 nM.

Consider `O=C(C1CCNCC1)N1N=C(c2cc(F)ccc2F)SC12CCCc1ccccc12` (stereo not drawn) [compound 401], for which the EC50 is more than 1000 nM.

Turning to `CN1CCC(C(=O)N2N=C(c3cc(F)ccc3F)SC23CCc2ccccc23)CC1` (stereo not drawn) [compound 421], the EC50 is more than 1000 nM.

Regarding `O=C([C@@H]1CCCN1)N1N=C(c2cc(F)ccc2F)SC12CCCc1sccc12` (stereo partly drawn) [compound 411], the EC50 is more than 1000 nM.

Take `CN(C)CCCC(=O)N1N=C(c2cc(F)ccc2F)SC12CCOc1ccccc12` (stereo not drawn) [compound 475]: the EC50 was not above 500 nM.

For `CO[C@@H](C)C(=O)N1N=C(c2cc(F)ccc2F)SC12CCOc1ccccc12` (stereo partly drawn) [compound 435], the EC50 fell in the range of 500 to 1000 nM.

For `O=C(C1CCNCC1)N1N=C(c2cc(F)ccc2F)SC12CCSc1ccccc12` (stereo not drawn) [compound 406], the EC50 was more than 1000 nM.

In the case of `O=C(C1CCNCC1)N1N=C(c2cc(F)ccc2F)SC12CCc1ccccc12` (stereo not drawn) [compound 422], the EC50 was more than 1000 nM.

Take `CN(C)CCCC(=O)N1N=C(c2cc(F)ccc2F)SC12Cc1ccccc12` (stereo not drawn) [compound 463]: the EC50 was not above 500 nM.

On to `CC(C)C(=O)N1N=C(c2cc(F)ccc2F)SC12CCOc1ccccc12` (stereo not drawn) [compound 467], for which the EC50 is more than 1000 nM.

The assay is the same for the next values; noted with them: Homo sapiens, HCT-116, 16 h, Table 701; HCT116 cells, 16 hours with drug; read-out: EC50 (nM) Range.
On to `CC(C)N1N=C(c2cc(F)ccc2F)SC12CCOc1ccccc12` (stereo not drawn) [compound 702], for which the EC50 was more than 1000 nM.

The assay is the same for the next values; noted with them: Homo sapiens, HCT-116, 16 h, Table 801; HCT116 cells, 16 hours with drug; read-out: EC50 (nM) Range.
As to `CC(=O)N1N=C(c2cc(F)ccc2F)S[C@@]12c1ccccc1OC[C@@H]2CCN` [compound 814], the EC50 was not above 500 nM.

Turning to `CC(=O)N1N=C(c2cc(F)ccc2F)S[C@]12c1ccccc1OC[C@@H]2CCN` [compound 816], the EC50 is more than 1000 nM.

Still in this assay, the particulars now being: Homo sapiens, HCT-116, 16 h, Table 1201 (Example 1201); HCT116 cells, 16 hours with drug; read-out: EC50 (nM) Range.
For the compound `CCNCC[C@@H]1COc2ccccc2[C@@]12SC(c1cc(F)ccc1F)=NN2C(C)=O` [compound 1202], the EC50 was not above 500 nM.

Still in this assay, the particulars now being: Homo sapiens, HCT-116, 16 h, table of Example 1001; HCT116 cells, 16 hours with drug; read-out: EC50 (nM) Range.
For `CC(=O)N1N=C(c2cc(F)ccc2F)S[C@]12c1ccccc1OC[C@H]2CCCO` (single isomer, unassigned) [compound 1002], the EC50 is not above 500 nM.

Staying with this assay, now noted: Homo sapiens, HCT-116, 16 h, table of Example 1801 (headed Table 1201); HCT116 cells, 16 hours with drug; read-out: EC50 (nM) Range.
Regarding `CC(=O)N1N=C(c2ccc(F)cc2F)S[C@@]12c1ccccc1OC[C@H]2CCN` (single isomer, unassigned) [compound 1801], the EC50 was not above 500 nM.

In the case of `CC(=O)N1N=C(c2cccc(C(F)(F)F)c2)S[C@@]12c1ccccc1OC[C@H]2CCN` [compound 1814], the EC50 is not above 500 nM.

With `CC(=O)N1N=C(c2cc(F)cc(F)c2)S[C@@]12c1cc(F)ccc1OC[C@H]2CCN` [compound 1821], the EC50 was not above 500 nM.

For `CC(=O)N1N=C(c2cccc(C(F)(F)F)c2)S[C@]12c1ccccc1OC[C@@H]2CCN` [compound 1817], the EC50 was more than 1000 nM.

On to `CC(=O)N1N=C(c2cc(C(F)(F)F)ccc2F)S[C@@]12c1ccccc1OC[C@H]2CCN` [compound 1806], for which the EC50 was not above 500 nM.

The assay is the same for the next values; noted with them: Homo sapiens, HCT-116, 16 h, table of Example 1901; HCT116 cells, 16 hours with drug; read-out: EC50 (nM) Range.
Turning to `COCCOCC(=O)N1N=C(c2cc(F)ccc2F)S[C@]12c1ccccc1OC[C@@H]2CCN` [compound 1910], the EC50 was more than 1000 nM.

Take `CO[C@@H](C)C(=O)N1N=C(c2cc(F)ccc2F)S[C@]12c1cc(F)ccc1OC[C@@H]2CCN` (single isomer, unassigned) [compound 1901]: the EC50 was more than 1000 nM.

The same assay, now with this note: Homo sapiens, HCT-116, 16 h, table of Example 2001; HCT116 cells, 16 hours with drug; read-out: EC50 (nM) Range.
`COCC(=O)N1N=C(c2cc(F)ccc2F)S[C@@]12c1ccccc1OC[C@H]2CCN` [compound 2004]: the EC50 was not above 500 nM.

As to `CO[C@@H](C)C(=O)N1N=C(c2cc(F)ccc2F)S[C@]12c1ccccc1OC[C@@H]2CCN` [compound 2007], the EC50 is not above 500 nM.

The assay is the same for the next values; noted with them: Homo sapiens, HCT-116, 16 h, table of Example 2201; HCT116 cells, 16 hours with drug; read-out: EC50 (nM) Range.
As to `NCC[C@H]1COc2ccccc2[C@]12SC(c1cc(F)ccc1F)=NN2C(=O)N1CCOCC1` [compound 2206], the EC50 is more than 1000 nM.

For the compound `CN(C)C(=O)N1N=C(c2cc(F)ccc2F)S[C@]12c1cc(F)ccc1OC[C@@H]2CCN` [compound 2202], the EC50 was more than 1000 nM.

For `CN(C)C(=O)N1N=C(c2cc(F)ccc2F)S[C@@]12c1cc(F)ccc1OC[C@H]2CCN` (single isomer, unassigned) [compound 2201], the EC50 is more than 1000 nM.

The same assay, now with this note: Homo sapiens, HCT-116, 16 h, table of Example 2401; HCT116 cells, 16 hours with drug; read-out: EC50 (nM) Range.
Turning to `CC(=O)N1N=C(c2cc(F)ccc2F)S[C@]12CCNc1ccccc12` [compound 2402], the EC50 is more than 1000 nM.

Regarding `CC(=O)N1N=C(c2cc(F)ccc2F)S[C@@]12CCNc1ccccc12` (single isomer, unassigned) [compound 2401], the EC50 was not above 500 nM.

The assay is the same for the next values; noted with them: Homo sapiens, HCT-116, 16 h, table of Example 2701; HCT116 cells, 16 hours with drug; read-out: EC50 (nM) Range.
`CC(=O)NCC[C@H]1CNc2ccccc2[C@]12SC(c1cc(F)ccc1F)=NN2C(C)=O` [compound 2702]: the EC50 is 500 to 1000 nM.

The same assay, now with this note: Homo sapiens, HCT-116; read-out: EC50 (nM) Range.
For `Fc1ccc(F)c(C2=NN3CCC4CNc5ccccc5C43S2)c1` (stereo not drawn) [compound 3101], the EC50 is more than 1000 nM.

Turning to `C=CC[C@@H]1CNc2ccccc2[C@]12SC(c1cc(F)ccc1F)=NN2C(C)=O` (single isomer, unassigned) [compound 3001], the EC50 was not above 500 nM.

These data come from patent US8796460B2, “Compounds for inhibiting KSP kinesin activity” (Mercky Sharp & Dohme Corp., priority 2007, dated 2014).
